According to patent US10537563B2, “Methods for treating ocular disease using inhibitors of CSF-1R” (NOVARTIS AG, priority 2016, dated 2020):

Columns and labels:
CDC2_cyclinB = CDC2_cyclinB (Homo sapiens, UniProt P06493); test: In vitro kinase assay (Table 1); format: biochemical
Ck1 delta = Ck1 delta (Homo sapiens, UniProt P48730); test: In vitro kinase assay (Table 1); format: biochemical
Ck2alpha1 = Ck2alpha1 (Homo sapiens, UniProt P68400); test: In vitro kinase assay (Table 1); format: biochemical
Erk1 = Erk1 (Homo sapiens, UniProt P27361); test: In vitro kinase assay (Table 1); format: biochemical
IGF-1R = IGF-1R (Homo sapiens, UniProt P08069); test: In vitro kinase assay (Table 1); format: biochemical
Insulin RK = Insulin RK (Homo sapiens, UniProt P06213); test: In vitro kinase assay (Table 1); format: biochemical
PDK_1 = PDK_1 (Homo sapiens, UniProt O15530); test: In vitro kinase assay (Table 1); format: biochemical
PIK3Calpha = PIK3Calpha (Homo sapiens, UniProt P42336); test: In vitro kinase assay (Table 1); format: biochemical
PIK4Cbeta = PIK4Cbeta (Homo sapiens, UniProt Q9UBF8); test: In vitro kinase assay (Table 1); format: biochemical
Pim3 = Pim3 (Homo sapiens, UniProt Q86V86); test: In vitro kinase assay (Table 1); format: biochemical
ROS = ROS (Homo sapiens, UniProt P08922); test: In vitro kinase assay (Table 1); format: biochemical
TAK1 = TAK1 (Homo sapiens, UniProt O43318); test: In vitro kinase assay (Table 1); format: biochemical
TSSK1 = TSSK1 (Homo sapiens, UniProt Q9BXA7); test: In vitro kinase assay (Table 1); format: biochemical
BaF-Tel-IGF1R = biological target: T1, BaF-Tel-IGF1R (Homo sapiens, UniProt P08069); test: BaF3 proliferation assay; format: cell-based, murine
T1 construct: fused on or other part: P41212 (Transcription factor ETV6)

BaF-PTC3-RET = BaF-PTC3-RET (Homo sapiens, UniProt P07949); test: BaF3 proliferation assay; format: cell-based, murine
BaF-wt = test: BaF3 proliferation assay; format: cell-based, murine; conditions: Mus musculus
BaF3-Tel-INSR 1.2 = biological target: T2, BaF3-Tel-INSR 1.2 (Homo sapiens, UniProt P06213); test: BaF3 proliferation assay; format: cell-based, murine
T2 construct: fused on or other part: P41212 (Transcription factor ETV6)

BAF/Tel-EphB2-Q2/sACP = biological target: T3, BAF/Tel-EphB2-Q2/sACP (Homo sapiens, UniProt P29323); test: BaF3 proliferation assay; format: cell-based, murine
T3 construct: fused on or other part: P41212 (Transcription factor ETV6)

BAF/Tel-EphA3-4.2/sACP = biological target: T4, BAF/Tel-EphA3-4.2/sACP (Homo sapiens, UniProt P29320); test: BaF3 proliferation assay; format: cell-based, murine
T4 construct: fused on or other part: P41212 (Transcription factor ETV6)

BAF/Tel-FLT4-Q2/sACP = biological target: T5, BAF/Tel-FLT4-Q2/sACP (Homo sapiens, UniProt P35916); test: BaF3 proliferation assay; format: cell-based, murine
T5 construct: fused on or other part: P41212 (Transcription factor ETV6)

BAF/Tel-KDR-Q4/sACP = biological target: T6, BAF/Tel-KDR-Q4/sACP (Homo sapiens, UniProt P35968); test: BaF3 proliferation assay; format: cell-based, murine
T6 construct: fused on or other part: P41212 (Transcription factor ETV6)

BAF/Tel-RON-4.1/sACP = biological target: T7, BAF/Tel-RON-4.1/sACP (Homo sapiens, UniProt Q04912); test: BaF3 proliferation assay; format: cell-based, murine
T7 construct: fused on or other part: P41212 (Transcription factor ETV6)

BAF/Tel-TRKC-Q2/sACP = biological target: T8, BAF/Tel-TRKC-Q2/sACP (Homo sapiens, UniProt Q16288); test: BaF3 proliferation assay; format: cell-based, murine
T8 construct: fused on or other part: P41212 (Transcription factor ETV6)

BAF/Tel-TRKB-Q2/sACP = biological target: T9, BAF/Tel-TRKB-Q2/sACP (Homo sapiens, UniProt Q16620); test: BaF3 proliferation assay; format: cell-based, murine
T9 construct: fused on or other part: P41212 (Transcription factor ETV6)

BAF/Tel-TRKA-Q.3/sACP = biological target: T10, BAF/Tel-TRKA-Q.3/sACP (Homo sapiens, UniProt P04629); test: BaF3 proliferation assay; format: cell-based, murine
T10 construct: fused on or other part: P41212 (Transcription factor ETV6)

BAF/Tel-JAK2-1.2/sACP = biological target: T11, BAF/Tel-JAK2-1.2/sACP (Homo sapiens, UniProt O60674); test: BaF3 proliferation assay; format: cell-based, murine
T11 construct: fused on or other part: P41212 (Transcription factor ETV6)

BAF/Tel-FGR-2.1/sACP = biological target: T12, BAF/Tel-FGR-2.1/sACP (Homo sapiens, UniProt P09769); test: BaF3 proliferation assay; format: cell-based, murine
T12 construct: fused on or other part: P41212 (Transcription factor ETV6)

BAF/Tel-Lck-2.1/sACP = biological target: T13, BAF/Tel-Lck-2.1/sACP (Homo sapiens, UniProt P06239); test: BaF3 proliferation assay; format: cell-based, murine
T13 construct: fused on or other part: P41212 (Transcription factor ETV6)

BAF/Tel-Lyn-1.2/sACP = biological target: T14, BAF/Tel-Lyn-1.2/sACP (Homo sapiens, UniProt P07948); test: BaF3 proliferation assay; format: cell-based, murine
T14 construct: fused on or other part: P41212 (Transcription factor ETV6)

BAF/Tel-Syk-1.1/sACP = biological target: T15, BAF/Tel-Syk-1.1/sACP (Homo sapiens, UniProt P43405); test: BaF3 proliferation assay; format: cell-based, murine
T15 construct: fused on or other part: P41212 (Transcription factor ETV6)

BAF/bRaf Pim1-1/sACP = test: BaF3 proliferation assay; format: cell-based, murine; conditions: Mus musculus
[1] = system: MCSF-dependent proliferation; test: MCSF-dependent proliferation; format: cell-based; conditions: read-out: MCSF-dependent proliferation cellular EC50
human macrophages = test: In vitro survival of human macrophages (CellTiter-Glo); format: cell-based; conditions: 1 and 10 μM
Description: (§1) Freshly isolated human PBMCs were used to purify human monocytes by negative selection using an indirect magnetic labeling system. […] Soluble factors such as cytokines (VEGFa, IL-6 etc.) and chemokines (IL-8, MCP-1, MMP9 etc.) in the culture supernatant were measured using commercial ELISA kits. The in vitro survival of human macrophages was measured using a commercially available CellTiter-Glo® system. Most observed results were repeated in multiple donors (n>5).

MMP-9 = MMP-9 production by human macrophages (ELISA); format: cell-based; conditions: low dose (0.1 μM)
Description: as §1

CD206 = CD206 expression in M2a macrophages; format: cell-based, human
Description: as §1

MCP-1 = MCP-1 production by human monocytes (ELISA); format: cell-based; conditions: Monocyte
Description: as §1

IL-8 = IL-8 production by human monocytes (ELISA); format: cell-based; conditions: Monocyte
Description: as §1

Chain of BaF-PTC3-RET (P07949 713-1063 limits assumed, change not shown): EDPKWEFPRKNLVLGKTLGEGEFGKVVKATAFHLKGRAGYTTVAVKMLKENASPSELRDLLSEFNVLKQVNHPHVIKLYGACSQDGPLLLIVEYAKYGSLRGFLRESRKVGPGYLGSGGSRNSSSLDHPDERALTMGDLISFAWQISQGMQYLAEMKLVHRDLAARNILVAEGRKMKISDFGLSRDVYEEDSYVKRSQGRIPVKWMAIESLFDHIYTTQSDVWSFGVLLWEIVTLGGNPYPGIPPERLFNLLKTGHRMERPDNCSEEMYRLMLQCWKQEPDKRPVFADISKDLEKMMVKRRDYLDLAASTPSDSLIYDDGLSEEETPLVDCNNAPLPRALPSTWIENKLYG
T8 sequence (Q16288 whole entry, change not shown, the tested form may be a part): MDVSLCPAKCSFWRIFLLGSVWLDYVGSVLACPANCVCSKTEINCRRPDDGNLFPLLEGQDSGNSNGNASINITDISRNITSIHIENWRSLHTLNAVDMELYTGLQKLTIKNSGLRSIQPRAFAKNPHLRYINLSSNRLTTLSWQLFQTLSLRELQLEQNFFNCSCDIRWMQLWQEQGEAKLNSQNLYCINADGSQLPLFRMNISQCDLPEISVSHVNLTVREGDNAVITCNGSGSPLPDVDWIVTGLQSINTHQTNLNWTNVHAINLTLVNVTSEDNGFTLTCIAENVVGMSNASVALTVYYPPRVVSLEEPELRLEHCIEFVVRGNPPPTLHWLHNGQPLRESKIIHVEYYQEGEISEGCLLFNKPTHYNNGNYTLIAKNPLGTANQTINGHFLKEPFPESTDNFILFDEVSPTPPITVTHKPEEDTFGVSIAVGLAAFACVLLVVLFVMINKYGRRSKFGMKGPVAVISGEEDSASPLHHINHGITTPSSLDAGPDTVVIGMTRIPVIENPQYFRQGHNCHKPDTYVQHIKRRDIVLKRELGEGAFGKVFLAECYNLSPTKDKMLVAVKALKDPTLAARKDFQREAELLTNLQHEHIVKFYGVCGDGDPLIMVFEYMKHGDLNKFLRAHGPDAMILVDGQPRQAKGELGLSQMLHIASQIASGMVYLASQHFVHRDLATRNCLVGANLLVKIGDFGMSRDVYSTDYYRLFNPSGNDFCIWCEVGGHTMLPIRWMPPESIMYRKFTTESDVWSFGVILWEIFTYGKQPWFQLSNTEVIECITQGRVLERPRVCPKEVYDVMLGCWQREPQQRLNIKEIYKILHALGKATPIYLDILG
Chain of ROS (P08922 28-2347, species assumed): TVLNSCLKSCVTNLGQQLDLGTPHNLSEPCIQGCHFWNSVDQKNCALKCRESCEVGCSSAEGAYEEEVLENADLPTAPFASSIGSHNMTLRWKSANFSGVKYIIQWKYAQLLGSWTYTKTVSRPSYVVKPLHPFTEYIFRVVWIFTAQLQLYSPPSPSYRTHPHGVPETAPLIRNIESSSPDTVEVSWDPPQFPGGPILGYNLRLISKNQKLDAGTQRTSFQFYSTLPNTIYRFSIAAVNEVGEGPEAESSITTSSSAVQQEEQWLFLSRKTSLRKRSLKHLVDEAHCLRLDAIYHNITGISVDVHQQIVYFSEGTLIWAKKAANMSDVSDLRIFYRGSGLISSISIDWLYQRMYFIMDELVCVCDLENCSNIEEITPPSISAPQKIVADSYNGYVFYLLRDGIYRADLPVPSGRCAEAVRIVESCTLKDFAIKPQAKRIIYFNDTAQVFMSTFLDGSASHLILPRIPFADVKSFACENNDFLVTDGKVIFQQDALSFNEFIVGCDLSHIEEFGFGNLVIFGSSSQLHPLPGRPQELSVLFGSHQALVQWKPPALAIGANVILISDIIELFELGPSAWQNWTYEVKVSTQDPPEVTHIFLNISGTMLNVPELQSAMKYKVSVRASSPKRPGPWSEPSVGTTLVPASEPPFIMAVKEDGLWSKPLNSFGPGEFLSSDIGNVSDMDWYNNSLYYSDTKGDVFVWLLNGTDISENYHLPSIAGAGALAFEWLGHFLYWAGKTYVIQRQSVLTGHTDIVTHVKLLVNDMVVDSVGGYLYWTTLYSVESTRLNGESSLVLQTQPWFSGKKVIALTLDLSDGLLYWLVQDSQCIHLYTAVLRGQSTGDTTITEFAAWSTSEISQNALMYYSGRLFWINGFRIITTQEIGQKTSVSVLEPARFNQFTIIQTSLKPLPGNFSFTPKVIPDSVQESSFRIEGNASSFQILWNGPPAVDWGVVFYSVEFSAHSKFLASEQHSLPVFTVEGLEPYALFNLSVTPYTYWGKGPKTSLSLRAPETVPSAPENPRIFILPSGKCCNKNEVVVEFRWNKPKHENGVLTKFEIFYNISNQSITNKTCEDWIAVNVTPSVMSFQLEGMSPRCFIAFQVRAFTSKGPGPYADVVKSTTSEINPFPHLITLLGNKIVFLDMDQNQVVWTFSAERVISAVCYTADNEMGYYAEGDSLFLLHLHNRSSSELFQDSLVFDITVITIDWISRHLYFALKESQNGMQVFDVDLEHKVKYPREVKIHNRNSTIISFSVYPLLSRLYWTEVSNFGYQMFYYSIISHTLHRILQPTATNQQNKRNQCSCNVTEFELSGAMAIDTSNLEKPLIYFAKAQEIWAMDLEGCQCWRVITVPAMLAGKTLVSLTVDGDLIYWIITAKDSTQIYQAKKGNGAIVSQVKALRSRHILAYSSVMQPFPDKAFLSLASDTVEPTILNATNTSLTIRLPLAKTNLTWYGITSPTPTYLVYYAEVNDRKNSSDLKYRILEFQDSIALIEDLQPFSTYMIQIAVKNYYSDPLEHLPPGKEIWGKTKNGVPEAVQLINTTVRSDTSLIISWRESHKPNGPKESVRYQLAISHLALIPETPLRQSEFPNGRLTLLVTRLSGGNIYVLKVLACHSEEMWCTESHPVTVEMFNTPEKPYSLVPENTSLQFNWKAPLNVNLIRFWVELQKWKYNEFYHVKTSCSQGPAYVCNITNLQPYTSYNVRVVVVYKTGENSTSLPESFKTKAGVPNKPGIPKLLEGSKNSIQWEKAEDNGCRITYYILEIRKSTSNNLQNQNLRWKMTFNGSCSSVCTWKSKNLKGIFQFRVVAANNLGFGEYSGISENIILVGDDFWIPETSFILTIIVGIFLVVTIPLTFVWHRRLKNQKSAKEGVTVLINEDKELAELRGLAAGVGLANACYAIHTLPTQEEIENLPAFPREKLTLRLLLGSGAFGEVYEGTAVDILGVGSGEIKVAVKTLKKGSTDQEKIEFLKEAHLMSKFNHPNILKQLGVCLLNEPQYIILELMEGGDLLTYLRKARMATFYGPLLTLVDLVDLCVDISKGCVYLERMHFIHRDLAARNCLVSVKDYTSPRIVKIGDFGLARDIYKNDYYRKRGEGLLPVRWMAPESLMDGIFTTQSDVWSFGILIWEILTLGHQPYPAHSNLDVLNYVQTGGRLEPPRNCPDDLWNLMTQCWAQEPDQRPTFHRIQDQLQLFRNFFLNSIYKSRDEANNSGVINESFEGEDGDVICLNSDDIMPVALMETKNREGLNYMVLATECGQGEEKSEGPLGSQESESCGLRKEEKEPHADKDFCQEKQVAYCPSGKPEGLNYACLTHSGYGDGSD
T2 sequence (P06213 1023-1298 limits assumed, stated change not applied): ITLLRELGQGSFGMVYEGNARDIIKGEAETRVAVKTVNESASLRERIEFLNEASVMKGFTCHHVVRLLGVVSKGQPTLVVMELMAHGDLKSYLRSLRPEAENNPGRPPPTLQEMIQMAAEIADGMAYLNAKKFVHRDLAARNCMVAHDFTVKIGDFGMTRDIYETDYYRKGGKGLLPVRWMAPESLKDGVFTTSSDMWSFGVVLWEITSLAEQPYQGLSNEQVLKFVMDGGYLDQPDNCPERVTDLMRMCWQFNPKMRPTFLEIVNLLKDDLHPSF
Chain of PDK_1 (O15530 whole entry): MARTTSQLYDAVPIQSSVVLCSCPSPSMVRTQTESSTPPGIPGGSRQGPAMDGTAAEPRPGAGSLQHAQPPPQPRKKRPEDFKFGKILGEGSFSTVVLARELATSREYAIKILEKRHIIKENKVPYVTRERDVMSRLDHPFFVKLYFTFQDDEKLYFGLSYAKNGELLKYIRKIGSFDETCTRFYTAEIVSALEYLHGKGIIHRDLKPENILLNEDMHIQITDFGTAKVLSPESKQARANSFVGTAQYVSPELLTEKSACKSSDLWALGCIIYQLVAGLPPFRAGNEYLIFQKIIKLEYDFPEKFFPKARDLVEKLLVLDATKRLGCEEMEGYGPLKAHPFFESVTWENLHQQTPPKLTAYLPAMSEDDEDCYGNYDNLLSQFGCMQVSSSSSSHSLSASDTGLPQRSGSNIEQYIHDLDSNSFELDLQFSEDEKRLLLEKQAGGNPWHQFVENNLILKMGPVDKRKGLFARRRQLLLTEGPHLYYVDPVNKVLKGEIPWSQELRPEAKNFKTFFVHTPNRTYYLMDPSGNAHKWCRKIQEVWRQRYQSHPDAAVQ
Chain of CDC2_cyclinB (P06493 whole entry): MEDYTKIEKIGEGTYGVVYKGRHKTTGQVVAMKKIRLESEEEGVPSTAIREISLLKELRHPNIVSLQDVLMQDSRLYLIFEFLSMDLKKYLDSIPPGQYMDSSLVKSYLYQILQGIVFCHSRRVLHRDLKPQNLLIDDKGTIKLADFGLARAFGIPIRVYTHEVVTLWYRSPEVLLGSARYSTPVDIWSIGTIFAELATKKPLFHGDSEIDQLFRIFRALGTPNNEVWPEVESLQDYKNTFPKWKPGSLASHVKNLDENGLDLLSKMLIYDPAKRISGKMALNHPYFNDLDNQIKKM
Chain of CDC2_cyclinB (P14635 whole entry partner): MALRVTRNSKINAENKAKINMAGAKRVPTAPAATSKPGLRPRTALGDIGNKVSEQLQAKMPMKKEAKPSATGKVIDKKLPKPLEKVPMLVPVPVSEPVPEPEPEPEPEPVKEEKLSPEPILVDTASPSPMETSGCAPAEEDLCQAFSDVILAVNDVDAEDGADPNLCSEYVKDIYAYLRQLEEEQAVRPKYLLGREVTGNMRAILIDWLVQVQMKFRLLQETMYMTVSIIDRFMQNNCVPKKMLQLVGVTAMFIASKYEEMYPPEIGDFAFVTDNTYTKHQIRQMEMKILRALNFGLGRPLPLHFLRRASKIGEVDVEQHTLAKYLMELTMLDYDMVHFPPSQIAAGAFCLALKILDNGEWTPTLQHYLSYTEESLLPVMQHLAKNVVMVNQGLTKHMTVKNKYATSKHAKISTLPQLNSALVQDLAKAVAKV

CNC(=O)c1cc(Oc2ccc3nc(NC4CCCCC4O)sc3c2)ccn1 (stereo not shown) [Compound (I)]
IC50 (CDC2_cyclinB): > 25 µM
IC50 (Ck1 delta): > 10 µM
IC50 (Ck2alpha1): > 10 µM
IC50 (Erk1): > 10 µM
IC50 (IGF-1R): > 10 µM
IC50 (Insulin RK): > 10 µM
IC50 (PDK_1): > 25 µM
IC50 (PIK3Calpha): > 25 µM
IC50 (PIK4Cbeta): > 25 µM
IC50 (Pim3): > 25 µM
IC50 (ROS): > 10 µM
IC50 (TAK1): > 10 µM
IC50 (TSSK1): > 10 µM
EC50 (BaF-Tel-IGF1R): > 10 µM
EC50 (BaF-PTC3-RET): > 10 µM
EC50 (BaF-wt): > 10 µM
EC50 (BaF3-Tel-INSR 1.2): > 10 µM
EC50 (BAF/Tel-EphB2-Q2/sACP): > 10 µM
EC50 (BAF/Tel-EphA3-4.2/sACP): > 10 µM
EC50 (BAF/Tel-FLT4-Q2/sACP): > 10 µM
EC50 (BAF/Tel-KDR-Q4/sACP): > 10 µM
EC50 (BAF/Tel-RON-4.1/sACP): > 10 µM
EC50 (BAF/Tel-TRKC-Q2/sACP): > 10 µM
EC50 (BAF/Tel-TRKB-Q2/sACP): > 10 µM
EC50 (BAF/Tel-TRKA-Q.3/sACP): > 10 µM
EC50 (BAF/Tel-JAK2-1.2/sACP): > 10 µM
EC50 (BAF/Tel-FGR-2.1/sACP): > 10 µM
EC50 (BAF/Tel-Lck-2.1/sACP): > 10 µM
EC50 (BAF/Tel-Lyn-1.2/sACP): > 10 µM
EC50 (BAF/Tel-Syk-1.1/sACP): > 10 µM
EC50 (BAF/bRaf Pim1-1/sACP): > 10 µM
EC50 [1]: < 0.071 µM
viability of human macrophages (CTG values and light microscope pictures) (human macrophages): decreased the viability
MMP-9 production by human macrophages (MMP-9): downregulated
CD206 expression in M2a (CD206): dose-dependently decreased
inhibition at 0.05 µM (MCP-1): 30 to 70%
inhibition at 0.05 µM (IL-8): 7 to 90%
